Where two headings read alike, the source gives them in different places. Blank lines part the entries; values can stand above or below the compound they belong to.
Tests used:
Muscarinic M1 = molecular target: T1, Muscarinic M1 (Rattus norvegicus, UniProt P08482); experiment: Displacement of 3H-pirenzepine from cerebral cortex homogenate (receptor binding studies in vitro)
T1 construct: displacement of ^3 H-pirenzepine from cerebral cortex homogenate; from tissue; host or cells: rat cerebral cortex homogenate
T1 sequence (P08482 1-460): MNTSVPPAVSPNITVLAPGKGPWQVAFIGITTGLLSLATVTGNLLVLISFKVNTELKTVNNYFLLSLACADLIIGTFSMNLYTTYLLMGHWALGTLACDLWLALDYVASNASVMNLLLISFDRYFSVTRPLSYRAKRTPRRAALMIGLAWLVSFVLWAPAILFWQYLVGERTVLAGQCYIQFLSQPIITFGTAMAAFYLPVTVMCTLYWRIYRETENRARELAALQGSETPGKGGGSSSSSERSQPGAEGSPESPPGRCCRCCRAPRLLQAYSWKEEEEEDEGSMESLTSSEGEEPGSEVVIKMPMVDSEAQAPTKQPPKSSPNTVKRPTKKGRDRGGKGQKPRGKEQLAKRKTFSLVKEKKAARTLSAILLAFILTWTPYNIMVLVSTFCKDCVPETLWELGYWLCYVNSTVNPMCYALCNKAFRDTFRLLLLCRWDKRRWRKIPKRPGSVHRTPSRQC
Procedure: (§1) Muscarinic M1 activity was determined by studying the displacement of ^3 H-pirenzepine from cerebral cortex homogenate according to the procedure reported below: The cerebral cortex donors were male CD-COOBBS rats, 220-250 g body weight. The homogenization process was carried out in a Potter-Evelhjem apparatus in the presence of Na^+ /Mg^++ HEPES buffer; pH 7.4 (100 mM NaCl, 10 mM MgCl2, 20 mM HEPES); by filtering the suspension through two layers of cheesecloth. Binding curves for the under study compounds were derived indirectly from competition experiments against 0.5 nM ^3 H-pirenzepine labelling the muscarinic receptors of the cerebral cortex. 1 ml of the homogenate was incubated for 45 min at 30° C. in the presence of a maker ligand and different concentration of the cold ligand, conditions under which equilibrium was reached as determined by appropriate association experiments. The incubation was terminated by centrifugation (12,000 rpm for 3 min) at room temperature using an Eppendorf microcentrifuge. The resultant pellet was washed twice with 1.5 ml saline to remove the free radioactivity and it was allowed to dry. The tips of the tubes containing the pellet were cut off and 200 μl of tissue solubilizer (Lumasolve, Lumac) were added and left to stand overnight. Radioactivity was then counted after addition of 4 ml of liquid scintillation mixture (Dimilume/Toluene 1+10 v:v, Packard).
(§2) Assays were carried out in triplicate or quadruplicate and the non-specificbinding was defined as the radioactivity bound or entrapped in the pellet when the incubation medium contained 1 μM atropine sulphate. Non-specific binding averaged less than 30%. KD values (dissociation constants) were obtained by non-linear regression analysis on the basis of one binding site model with TOPFIT-pharmacokinetic programme package (G. Heinzel "Pharmacokinetics During Drug Development: Data Analysis and Evaluation Techniques" Eds. G. Bolzer and J. M. Van Rossum; p. 207, G. Fisher, New York, 1982) after correction for the radioligand occupancy shift according to the equation: KD =IC50 /1+*C/*KD, where *C and *KD represent the concentration and the dissociation constants of the radioligand, used respectively. Muscarinic M2 activity was examined by studing the displacement of ^3 H-NMS from total heart homogenate according to a procedure identical to the one already described hereinbefore for the muscarinic M1 activity.

Muscarinic M2 = molecular target: T2, Muscarinic M2 (Rattus norvegicus, UniProt P10980); experiment: Displacement of 3H-NMS from total heart homogenate (receptor binding studies in vitro)
T2 construct: displacement of ^3 H-NMS from total heart homogenate; from tissue; host or cells: total heart homogenate
T2 sequence (P10980 1-466): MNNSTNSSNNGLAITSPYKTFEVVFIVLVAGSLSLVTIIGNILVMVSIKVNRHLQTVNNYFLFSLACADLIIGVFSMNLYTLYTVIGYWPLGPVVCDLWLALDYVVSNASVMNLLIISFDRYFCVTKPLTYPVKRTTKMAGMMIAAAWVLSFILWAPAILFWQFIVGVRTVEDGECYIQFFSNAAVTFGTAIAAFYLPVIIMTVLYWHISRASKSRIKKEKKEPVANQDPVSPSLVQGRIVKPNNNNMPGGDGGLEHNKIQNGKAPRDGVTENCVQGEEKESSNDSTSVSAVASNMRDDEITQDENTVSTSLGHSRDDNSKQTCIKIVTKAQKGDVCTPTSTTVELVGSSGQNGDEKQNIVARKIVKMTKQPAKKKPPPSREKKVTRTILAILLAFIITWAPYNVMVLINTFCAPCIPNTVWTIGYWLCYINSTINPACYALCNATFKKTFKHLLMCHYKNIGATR
Procedure: as §1, §2

guinea pig ileum = molecular target: T3, guinea pig ileum (Cavia porcellus, UniProt H0W1Z3); experiment: Functional studies in vitro, isolated guinea pig ileum contracted with bethanechol
T3 construct: A 2 cm section of terminal ileum was prepared; from tissue; host or cells: isolated guinea pig terminal ileum
T3 sequence (H0W1Z3 1-590): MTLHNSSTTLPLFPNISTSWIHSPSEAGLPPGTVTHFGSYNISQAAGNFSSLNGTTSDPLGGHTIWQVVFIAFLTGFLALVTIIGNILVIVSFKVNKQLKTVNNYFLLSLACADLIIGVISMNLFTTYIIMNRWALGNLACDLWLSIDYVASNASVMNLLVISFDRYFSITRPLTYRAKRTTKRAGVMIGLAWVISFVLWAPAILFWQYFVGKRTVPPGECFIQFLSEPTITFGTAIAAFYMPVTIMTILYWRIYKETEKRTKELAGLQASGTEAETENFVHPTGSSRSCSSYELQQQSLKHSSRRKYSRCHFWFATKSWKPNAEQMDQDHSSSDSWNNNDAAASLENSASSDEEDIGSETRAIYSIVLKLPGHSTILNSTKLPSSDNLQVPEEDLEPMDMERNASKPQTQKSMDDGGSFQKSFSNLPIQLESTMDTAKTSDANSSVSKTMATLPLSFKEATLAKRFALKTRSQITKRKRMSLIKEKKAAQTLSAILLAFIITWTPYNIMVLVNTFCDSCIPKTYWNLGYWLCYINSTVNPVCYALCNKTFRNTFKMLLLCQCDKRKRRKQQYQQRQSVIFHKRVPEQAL
Procedure: (§3) Antimuscarinic activity and selectivity were examined in in vitro by receptor binding studies in two tissues endowed with M1 and M2 muscarinic receptors (cerebral cortex, heart), in functional studies in isolated guinea pig ileum and guinea pig paced left atria and in in vivo functional tests on bronchi and heart of the anaesthetized guinea pig.
Responses were recorded isotonically. Kb values were calculated according to Arunlakshana and Shild (British Journal of Pharmacology 14, 48-54, 1959).

guinea pig left atria = molecular target: T4, guinea pig left atria (Cavia porcellus, UniProt H0VRN8); experiment: Functional studies in vitro, guinea pig paced left atria, bethanechol negative inotropic effect
T4 construct: guinea pig paced left atria; from tissue; host or cells: isolated guinea pig left atria
T4 sequence (H0VRN8 1-466): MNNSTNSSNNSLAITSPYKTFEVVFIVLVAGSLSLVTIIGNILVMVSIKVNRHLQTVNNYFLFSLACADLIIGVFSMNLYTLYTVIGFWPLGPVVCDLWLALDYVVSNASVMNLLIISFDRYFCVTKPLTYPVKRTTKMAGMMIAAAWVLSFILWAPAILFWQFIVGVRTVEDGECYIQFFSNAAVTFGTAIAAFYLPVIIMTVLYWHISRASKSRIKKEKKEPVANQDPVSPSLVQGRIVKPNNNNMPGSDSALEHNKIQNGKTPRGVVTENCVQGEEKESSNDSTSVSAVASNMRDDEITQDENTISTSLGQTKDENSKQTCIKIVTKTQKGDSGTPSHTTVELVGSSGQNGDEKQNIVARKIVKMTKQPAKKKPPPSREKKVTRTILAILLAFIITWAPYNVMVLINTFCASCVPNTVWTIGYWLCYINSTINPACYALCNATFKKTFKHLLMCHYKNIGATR
Source text: as §3
The tissues were mounted in the Ewen's solution (millimolar: NaCl, 131.6; KCl, 5.6; CaCl2, 2.16; NaHCO3, 24.9; NaH2 PO4, 1.03; glucose, 11; and sucrose, 13) at 32° C. and stimulated through platinum electrodes by squarewave pulses (2 msec, 3 Hz, 100% above threshold voltage, delivered by a Grass S 48 stimulator). Inotropic activity was recorded isometrically (Statham transducer, Battaglia Rangoni ESO 300 recorder). Cumulative concentrations of bethanecol (1-30 μM) were used to induce a negative inotropic effect. Kb values were estimated as above described.

[1] = tested on: muscarinic responses in guinea pig longitudinal ileum and guinea pig paced left atria; conditions: prototype compound, in words; cited from earlier work
[2] = tested on: receptors with low affinity to Pirenzepine (M2 type); conditions: mainly in effector organs; cited from earlier work
[3] = tested on: Muscarinic receptors in the bronchi; experiment: In vivo inhibition of acetylcholine-induced bronchoconstriction in the anaesthetized guinea pig; conditions: Cavia porcellus, iv, 5 min; i.v., 5 min before acetylcholine 50 μg/kg; dose in mol/kg; read-out: -log ED50, bronchi (converted)
Procedure: (§4) Guinea pigs of either sex (550-600 g) were anaesthetized with urethane (1.4 g/kg, i.p.). A jugular vein was cannulated for injection of drugs. Heparin (200 I.U./kg) was injected i.v. A cannula was placed in the trachea and the animals were artificially respirated with oxygenated room air by means of a positive pressure pump (Braun-Melsungen) with a rate of 80 strokes/min. A side arm of the tracheal cannula was connected to a water manometer of 10 cm height. The respiratory volume was adjusted so that the maximal intratracheal pressure during inspiration just attained to a pressure of 10 cm water.
Excepts for some modifications, the effects of the drugs on bronchial tone was measured according to the method described by Konzett and Rossler (1940). The bronchoconstriction-evoked volume of respiratory gas mixture (overflow) passing through the water manometer was measured by means of a FLEISCH tube pneumotachometer (Model 0000) connected to a SP 2040 D differential pressure transducer (HSE). Registration was performed on a IFD recording device. […]
The drugs to be tested were injected via the jugular vein and 5 min later bronchial resistence (%) and the decrease in cardiac frequence (beats/min) to acetylcholine (50 μg/kg i.v. and i.a.) was measured. […]

[4] = tested on: Muscarinic receptors in the heart; experiment: In vivo inhibition of acetylcholine-induced bradycardia in the anaesthetized guinea pig; conditions: Cavia porcellus, iv, 5 min; i.v., 5 min before acetylcholine 50 μg/kg; dose in mol/kg; read-out: -log ED50, heart (converted)
Procedure: as §4
A cannula was placed in the left common carotid artery and arterial blood pressure was measured via a Bell and Howell 4-327 I pressure transducer connected to an IFD recording device. Cardiac frequency was measured by a ratemeter, triggered by the arterial pulsewave.
The drugs to be tested were injected via the jugular vein and 5 min later bronchial resistence (%) and the decrease in cardiac frequence (beats/min) to acetylcholine (50 μg/kg i.v. and i.a.) was measured. Dose response curves were constructed by plotting the percent inhibition of bronchoconstriction and bradycardia against the logarithm of the dose (mol/kg) of the drugs to be tested.

[5] = total heart homogenate, 3H-NMS, read-out: KD, M2 (heart)

Compound: CN1[C@@H]2CC[C@H]1C[C@@H](OC(=O)N1Cc3cc(F)ccc3NC1=O)C2 [Compound 26, 1,4-dihydro-6-fluoro-2(H)-2-oxo-3-quinazoline carboxylic acid-(endo-8-methyl-8-azabicyclo[3.2.1]oct-3-yl), ester]
Kd (Muscarinic M1): 3 nM | Kd (Muscarinic M2; [5]): 400 nM | Kb (guinea pig ileum): 4.5 nM | Kb (guinea pig left atria): 250 nM

Compound: CCN(CC)CC1CCCCN1CC(=O)N1c2ccccc2C(=O)Nc2cccnc21 (centres unmarked) [AF-DX-116, 11-2-{[2-(diethylamino)methyl-1-piperidinyl]acetyl}-5,11-dihydro-6H-pyrido (2,3-b)(1,4)benzodiazepin-6-one]
tissue selectivity among muscarinic antagonists [1]: cardioselective

Compound: CN1CCN(CC(=O)N2c3ccccc3C(=O)Nc3cccnc32)CC1 [Pirenzepine]
affinity at M2 type receptors [2]: low affinity

Compound: CN1[C@@H]2CC[C@H]1C[C@@H](NC(=O)N1Cc3ccccc3NC1=O)C2 [Compound 23, N-(endo-8-methyl-8-azabicyclo[3.2.1]oct-3-yl)-1,4-dihydro-2(H)-2-oxo-3-quinazoline carboxamide]
Kd (Muscarinic M1): 1 nM | Kd (Muscarinic M2): 60 nM | Kb (guinea pig ileum; functional studies, guinea pig ileum, bethanechol 0.3-10 μM, read-out: Kb, ileum): 0.6 nM | Kb (guinea pig left atria; functional studies, guinea pig paced left atria, bethanechol 1-30 μM, 32° C., read-out: Kb, heart): 22 nM

Compound: C[N+]1(C)CCC(OC(=O)C(c2ccccc2)c2ccccc2)CC1 [Compound 4-DAMP, 4-diphenylacetoxy-N-methylpiperidine methobromide]
tissue selectivity among muscarinic antagonists [1]: smooth muscle selective

Compound: CN1[C@@H]2CC[C@H]1C[C@@H](OC(=O)N1Cc3ccc(Cl)cc3NC1=O)C2 [Compound 25, 7-chloro-1,4-dihydro-2(H)-2-oxo-3-quinazoline carboxylic acid-(endo-8-methyl-8-azabicyclo[3.2.1]oct-3-yl), ester]
Kd (Muscarinic M1): 7 nM | Kd (Muscarinic M2; [5]): 1470 nM | Kb (guinea pig ileum): 16 nM | Kb (guinea pig left atria): 2200 nM

Compound: CN1C2CCC1CC(OC(=O)N1C(=O)Nc3ccccc3C1O)C2 (stereo not drawn) [Compound 49, 1,4-dihydro-4-hydroxy-2(H)-2-oxo-3-quinazolinecarboxylic acid-(endo-8-methyl-8-azabicyclo[3.2.1]oct-3-yl), ester]
Kd (Muscarinic M1): 2 nM | Kd (Muscarinic M2; [5]): 250 nM | Kb (guinea pig ileum): 1 nM | Kb (guinea pig left atria): 75 nM

EC50 (guinea pig ileum; guinea pig terminal ileum, Tyrode solution, cumulative conc. 0.3-10 μM, read-out: EC50 of bethanechol (contraction)): 1500 nM
Compound: CC(C[N+](C)(C)C)OC(N)=O (centres unmarked) [bethanechol, reference compound]

Compound: CN1[C@@H]2CC[C@H]1C[C@@H](OC(=O)N1Cc3ccccc3NC1=O)C2 [Compound 16, 1,4-dihydro-2(H)-2-oxo-3-quinazoline carboxylic acid-(endo-8-methyl-8-azabicyclo[3.2.1]oct-3-yl), ester]
Kd (Muscarinic M1; cerebral cortex homogenate, 0.5 nM 3H-pirenzepine, 45 min at 30° C., pH 7.4, read-out: KD, M1 (cortex)): 1 nM | Kd (Muscarinic M2): 133 nM | Kb (guinea pig ileum): 1.5 nM | Kb (guinea pig left atria): 122 nM | ED50 [3]: 0.00794 µmol/kg | ED50 [4]: 1 µmol/kg
